From patent US20250074910A1, “MENIN INHIBITOR AND USE THEREOF” (HITGEN INC., priority 2021, published 2025)

Molecular target: hERG potassium ion channel (Homo sapiens (Human), UniProt Q12809)
Assay: hERG potassium channel effect test (manual patch clamp, HEK293 cells overexpressing hERG)
Type: cell-based
Conditions: for inhibition at 30 μM: human, HEK293 cells overexpressing hERG potassium ion channels, read-out: Average inhibition rate of hERG current at the highest compound tested concentration; for IC50: manual patch clamp, highest test concentration 30 μM
Description: Test Example 6: hERG Potassium Channel Effect Test
The hERG inhibition test was performed on some of the example compounds of the present disclosure using the manual electrophysiological patch clamp method. The cell line was derived from HEK293 cells that overexpressed hERG potassium ion channels. The specific experimental protocol was developed by PharmaCore Labs with reference to literature published in peer-reviewed journals and was performed by PharmaCore Labs in accordance with its standard experimental operating procedures. The highest test concentration was 30 μM.

Chain of hERG potassium ion channel (Q12809 whole entry): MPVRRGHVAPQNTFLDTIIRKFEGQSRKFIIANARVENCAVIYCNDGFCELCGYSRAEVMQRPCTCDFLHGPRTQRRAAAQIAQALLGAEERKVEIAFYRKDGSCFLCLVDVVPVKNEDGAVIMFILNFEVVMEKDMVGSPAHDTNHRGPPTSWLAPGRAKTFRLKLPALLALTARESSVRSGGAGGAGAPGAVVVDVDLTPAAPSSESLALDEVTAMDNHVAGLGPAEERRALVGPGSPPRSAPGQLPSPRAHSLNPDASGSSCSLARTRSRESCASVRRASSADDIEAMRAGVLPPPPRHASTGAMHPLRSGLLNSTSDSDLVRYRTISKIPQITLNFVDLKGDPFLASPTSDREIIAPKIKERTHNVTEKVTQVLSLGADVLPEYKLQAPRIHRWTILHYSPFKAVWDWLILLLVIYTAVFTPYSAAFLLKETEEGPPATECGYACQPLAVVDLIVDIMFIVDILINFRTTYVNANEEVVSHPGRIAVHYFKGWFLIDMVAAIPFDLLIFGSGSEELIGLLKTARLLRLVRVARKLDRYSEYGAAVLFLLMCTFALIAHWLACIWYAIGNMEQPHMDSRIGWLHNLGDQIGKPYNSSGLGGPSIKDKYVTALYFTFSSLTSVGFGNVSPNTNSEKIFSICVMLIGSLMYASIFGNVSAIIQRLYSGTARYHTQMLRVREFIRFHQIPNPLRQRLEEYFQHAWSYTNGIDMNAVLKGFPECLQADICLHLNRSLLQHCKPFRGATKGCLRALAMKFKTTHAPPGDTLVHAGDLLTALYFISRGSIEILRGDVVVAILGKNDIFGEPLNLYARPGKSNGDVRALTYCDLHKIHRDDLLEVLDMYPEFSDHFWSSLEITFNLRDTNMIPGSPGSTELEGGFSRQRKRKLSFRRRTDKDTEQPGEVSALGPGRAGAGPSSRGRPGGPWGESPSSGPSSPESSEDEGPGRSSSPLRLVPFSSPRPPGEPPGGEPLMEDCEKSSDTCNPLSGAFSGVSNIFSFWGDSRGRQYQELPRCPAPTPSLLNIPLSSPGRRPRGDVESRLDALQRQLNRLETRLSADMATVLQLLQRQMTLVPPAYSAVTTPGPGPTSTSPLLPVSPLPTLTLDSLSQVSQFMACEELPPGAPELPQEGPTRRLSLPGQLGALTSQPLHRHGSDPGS

`COCC1(COC)C[C@]2(CC[C@@H](CN3CCC4(CC3)CN(c3ncnnc3Oc3ccc(F)cc3C(=O)N(C(C)C)C(C)C)C4)CC2)NC1=O` [Example 20] showed an inhibition at 30 μM of 13.2% and an IC50 greater than 30 µM.

`COC[C@H]1C[C@]2(CC[C@@H](CN3CCC4(CC3)CN(c3ncnnc3Oc3ccc(F)cc3C(=O)N(C(C)C)C(C)C)C4)CC2)NC1=O` [Example 38-1] gave an inhibition at 30 μM of 10.3% and an IC50 greater than 30 µM.
